In this test the test system is UV4. The test is described as follows: Cytotoxicity (growth inhibition), 4 h drug exposure, methylene blue staining. It counts as cell-based, rodent. Conditions: Cricetulus griseus; UV4 mutant AA8 line defective in excision repair; 4 hours exposure, then three days incubation. As for the experimental part:
Compounds of the invention were tested for cytotoxicity against four different cell lines, all of which are widely available in the art. AA8 is a wild type rodent cell line. UV4 is a mutant AA8 cell line defective in excision repair, and hypersensitive to many alkylating agents. EMT6 is a widely-used rodent line. SKOV is a human ovarian cell line.
Cell culture assays were performed in 96-well microtitre trays. Compounds of the invention were added in culture medium, using serial two-fold dilutions to provide duplicate cultures at five different concentrations for each of eight drugs (plus eight controls) per tray. Drugs were dissolved in water or DMSO immediately prior to addition to the cell culture. After 4 hours, drugs were removed by washing cultures three times with fresh medium, and the trays were incubated for a futher three days. Cell density was then determined by staining with methylene blue as described previously (Finlay, G. J., et al, Anal. Biochm. 1984, 139, 272-277) and the IC50 was calculated as the drug concentration providing 50% inhibition of growth relative to the controls.

In general, IC50 refers to the concentration that inhibits the measured activity by half. Low readings indicate greater potency, high ones weaker potency. In the case of `COc1cc2cc(C(=O)N3CC(COS(C)(=O)=O)c4c3cc(N)c3ccccc43)[nH]c2c(OC)c1OC` (stereo not shown) [15o, 5-amino-1-[(methanesulfonyloxy)methyl]-3-[(5,6,7-trimethoxyindol-2-yl)carbonyl]-1,2-dihydro-3H-benz[e]indole], the midpoint of inhibition, the IC50, lay at 665 nM.

For the origin of these results see EP0938474B1, “CYCLOPROPYLINDOLE COMPOUNDS AND THEIR USE AS PRODRUGS” (AUCKLAND UNISERVICES LIMITED, priority 1996, dated 1998).
